The values that follow come from ChEMBL document CHEMBL4184200, “Benzimidazole design, synthesis, and docking to build selective carbonic anhydrase VA inhibitors” (Bioorg Med Chem, 2018).

The nature of the data set: physchem.
Turning to `NS(=O)(=O)c1cc(C(=O)Cn2cnc3ccccc32)ccc1Cl`, the pKa (in general, the pH at which an ionisable group is half protonated) came to 8.8. In turn, `Cc1nc2ccccc2n1CC(=O)c1ccc(Cl)c(S(N)(=O)=O)c1` had a pKa of 8.8. In turn, `CCc1nc2ccccc2n1CC(=O)c1ccc(Cl)c(S(N)(=O)=O)c1` came in with a pKa of 8.8. Under `NS(=O)(=O)c1cc(C(=O)CN2CCCc3ccccc32)ccc1Cl` stands 8.8; under `NS(=O)(=O)c1cc(C(=O)Cn2ccnc2)ccc1Cl`, 8.8; under `NS(=O)(=O)c1cc(C(=O)Cn2ccnc2-c2ccccc2)ccc1Cl`, 8.8. Regarding `Cc1cc2ncn(CC(=O)c3ccc(Cl)c(S(N)(=O)=O)c3)c2cc1C`, the pKa came to 8.8. For `NS(=O)(=O)c1cc(C(=O)Nn2cnc3ccccc32)c(SC2CCCCC2)cc1Cl` the value was 8.8. `NS(=O)(=O)c1cc(C(=O)Cn2cnc3ccccc32)c(Cl)cc1Cl` yielded a pKa of 8.3. `Cc1cc2ncn(CC(=O)c3cc(S(N)(=O)=O)c(Cl)cc3Sc3ccccc3)c2cc1C` had a pKa of 8.8. For `NS(=O)(=O)c1cc(C(=O)Nn2cnc3ccccc32)c(Cl)cc1Cl`, the pKa turned out to be 8.3. `CCc1nccn1CC(=O)c1ccc(Cl)c(S(N)(=O)=O)c1` came in with a pKa of 8.8. Under `Cc1cc2ncn(CC(=O)c3cc(S(N)(=O)=O)c(Cl)cc3Cl)c2cc1C` stands 8.3; under `NS(=O)(=O)c1cc(C(=O)Cn2ccnc2)c(Cl)cc1Cl`, 8.3; under `NS(=O)(=O)c1cc(C(=O)Cn2cnc3ccccc32)c(SCCc2ccccc2)cc1Cl`, 8.8. In turn, `NS(=O)(=O)c1cc(C(=O)CN2CCc3ccccc32)ccc1Cl` registered a pKa of 8.8.

In turn, `NS(=O)(=O)c1cc(C(=O)Cn2cnc(-c3ccccc3)c2-c2ccccc2)ccc1Cl` showed a pKa of 8.8.

`NS(=O)(=O)c1cc(C(=O)Nn2cnc3ccccc32)c(Sc2ccccc2)cc1Cl` registered a pKa of 8.8. For `CC1Cc2ccccc2N1NC(=O)c1ccc(Cl)c(S(N)(=O)=O)c1` (centres undefined) [INDAPAMIDE], the pKa stood at 8.8.
